Test results from ChEMBL document CHEMBL1201862, “PubChem BioAssay data set” (2004).
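48-hour exposure; five concentrations; linearly interpolated endpoints. The concentration for 50% growth inhibition is given as GI50.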 Calls of active or inactive are those of the source. No stated cut-off is given here; in the data, active = GI50 up to about 1.1 µM and inactive = higher.

Experiments:
Assay in all cases: NCI tumour cell line growth inhibition, 48 h
786-0 = tested on: 786-0
A498 = tested on: A498
A549 = tested on: A549
ACHN = tested on: ACHN
BT-549 = tested on: BT-549
CAKI-1 = tested on: CAKI-1
CCRF-CEM = tested on: CCRF-CEM
COLO 205 = tested on: COLO 205
DLD-1 = tested on: DLD-1
DMS-114 = tested on: DMS-114
DMS-273 = tested on: DMS-273
DU-145 = tested on: DU-145
EKVX = tested on: EKVX
HCC 2998 = tested on: HCC 2998
HCT-116 = tested on: HCT-116
HCT-15 = tested on: HCT-15
HL-60 = tested on: HL-60
HOP-62 = tested on: HOP-62
HOP-92 = tested on: HOP-92
HT-29 = tested on: HT-29
Hs-578T = tested on: Hs-578T
IGROV-1 = tested on: IGROV-1
K562 = tested on: K562
KM-20L2 = tested on: KM-20L2
KM12 = tested on: KM12
LOX IMVI = tested on: LOX IMVI
LXFL 529 = tested on: LXFL 529
M14 = tested on: M14
M19-MEL = tested on: M19-MEL
MCF7 = tested on: MCF7
MDA-MB-231 = tested on: MDA-MB-231
MDA-MB-435 = tested on: MDA-MB-435
MDA-N = tested on: MDA-N
MOLT-4 = tested on: MOLT-4
Malme-3M = tested on: Malme-3M
NCI-H226 = tested on: NCI-H226
NCI-H23 = tested on: NCI-H23
NCI-H460 = tested on: NCI-H460
NCI-H522 = tested on: NCI-H522
NCI/ADR-RES = tested on: NCI/ADR-RES
OVCAR-3 = tested on: OVCAR-3
OVCAR-4 = tested on: OVCAR-4
OVCAR-5 = tested on: OVCAR-5
OVCAR-8 = tested on: OVCAR-8
PC-3 = tested on: PC-3
RPMI-8226 = tested on: RPMI-8226
RXF 393 = tested on: RXF 393
RXF 631 = tested on: RXF 631
SF-268 = tested on: SF-268
SF-295 = tested on: SF-295
SF-539 = tested on: SF-539
SK-MEL-28 = tested on: SK-MEL-28
SK-MEL-2 = tested on: SK-MEL-2
SK-MEL-5 = tested on: SK-MEL-5
SK-OV-3 = tested on: SK-OV-3
SN12C = tested on: SN12C
SNB-19 = tested on: SNB-19
SNB-75 = tested on: SNB-75
SNB-78 = tested on: SNB-78
SR = tested on: SR
SW-620 = tested on: SW-620
T47D = tested on: T47D
TK-10 = tested on: TK-10
U-251 = tested on: U-251
UACC-257 = tested on: UACC-257
UACC-62 = tested on: UACC-62
UO-31 = tested on: UO-31
XF498 = tested on: XF498
HOP-18 = tested on: HOP-18

For `O=C1C(CO)=C(CO)C(=O)c2c(O)ccc(O)c21`, the GI50 (786-0) was 361 nM (active), the GI50 (A498) was 1690 nM (inactive) and the GI50 (A549) was 1640 nM (inactive). For the same compound, the GI50 (ACHN) was 337 nM (active), the GI50 (BT-549) was 204 nM (active) and the GI50 (CAKI-1) was 387 nM (active). For the same compound, the GI50 (CCRF-CEM) was 57.5 nM (active), the GI50 (COLO 205) was 40.8 nM (active) and the GI50 (DLD-1) was 65.3 nM (active). For the same compound, the GI50 (DMS-114) was 240 nM (active), the GI50 (DMS-273) was 369 nM (active) and the GI50 (DU-145) was 1850 nM (inactive). For the same compound, the GI50 (EKVX) was 2250 nM (inactive), the GI50 (HCC 2998) was 2060 nM (inactive) and the GI50 (HCT-116) was 218 nM (active). For the same compound, the GI50 (HCT-15) was 214 nM, the GI50 (HL-60) was 43 nM (active) and the GI50 (HOP-62) was 1040 nM (active). The GI50 (HOP-92) was 261 nM (active), the GI50 (HT-29) was 105 nM (active) and the GI50 (Hs-578T) was 1450 nM (inactive). The GI50 (IGROV-1) was 1680 nM (inactive), the GI50 (K562) was 87.7 nM (active) and the GI50 (KM-20L2) was 498 nM (active). For the same compound, the GI50 (KM12) was 1610 nM (inactive), the GI50 (LOX IMVI) was 252 nM (active) and the GI50 (LXFL 529) was 177 nM (active). For the same compound, the GI50 (M14) was 143 nM (active), the GI50 (M19-MEL) was 71.9 nM (active) and the GI50 (MCF7) was 118 nM (active). The GI50 (MDA-MB-231) was 1350 nM (inactive), the GI50 (MDA-MB-435) was 472 nM (active) and the GI50 (MDA-N) was 236 nM (active). For the same compound, the GI50 (MOLT-4) was 49.7 nM (active), the GI50 (Malme-3M) was 217 nM (active) and the GI50 (NCI-H226) was 2150 nM (inactive). For the same compound, the GI50 (NCI-H23) was 389 nM (active), the GI50 (NCI-H460) was 923 nM (active) and the GI50 (NCI-H522) was 89.7 nM (active). The GI50 (NCI/ADR-RES) was 1040 nM (active), the GI50 (OVCAR-3) was 655 nM (active) and the GI50 (OVCAR-4) was 234 nM (active). The GI50 (OVCAR-5) was 2080 nM (inactive), the GI50 (OVCAR-8) was 942 nM (active) and the GI50 (PC-3) was 1970 nM (inactive). The GI50 (RPMI-8226) was 117 nM (active), the GI50 (RXF 393) was 390 nM (active) and the GI50 (RXF 631) was 1260 nM (inactive). The GI50 (SF-268) was 649 nM (active), the GI50 (SF-295) was 1690 nM (inactive) and the GI50 (SF-539) was 705 nM (active). For the same compound, the GI50 (SK-MEL-28) was 391 nM (active), the GI50 (SK-MEL-2) was 1050 nM (active) and the GI50 (SK-MEL-5) was 394 nM (active). The GI50 (SK-OV-3) was 7230 nM (inactive), the GI50 (SN12C) was 287 nM (active) and the GI50 (SNB-19) was 2880 nM (inactive). The GI50 (SNB-75) was 388 nM (active), the GI50 (SNB-78) was 1700 nM (inactive) and the GI50 (SR) was 90.2 nM (active). The GI50 (SW-620) was 82 nM (active), the GI50 (T47D) was 363 nM (active) and the GI50 (TK-10) was 352 nM (active). For the same compound, the GI50 (U-251) was 2220 nM (inactive), the GI50 (UACC-257) was 349 nM (active) and the GI50 (UACC-62) was 782 nM (active). For the same compound, the GI50 (UO-31) was 1000 nM (active) and the GI50 (XF498) was 247 nM (active).

With `CCCCC(C)C(OC(=O)CC(CC(=O)O)C(=O)O)C(CC(C)CC(O)CCCCC(O)CC(O)C(C)N)OC(=O)CC(CC(=O)O)C(=O)O` (stereo not drawn) the GI50 (786-0) was > 100000 nM (inactive), the GI50 (A498) was > 100000 nM (inactive) and the GI50 (A549) was > 100000 nM (inactive). The GI50 (ACHN) was > 100000 nM (inactive), the GI50 (CAKI-1) was > 100000 nM (inactive) and the GI50 (CCRF-CEM) was > 100000 nM (inactive). The GI50 (COLO 205) was > 100000 nM (inactive), the GI50 (DLD-1) was > 100000 nM (inactive) and the GI50 (EKVX) was > 100000 nM (inactive). For the same compound, the GI50 (HCC 2998) was > 100000 nM (inactive), the GI50 (HCT-116) was > 100000 nM (inactive) and the GI50 (HCT-15) was > 100000 nM. For the same compound, the GI50 (HL-60) was > 69800 nM (inactive), the GI50 (HOP-18) was > 100000 nM (inactive) and the GI50 (HOP-62) was > 100000 nM (inactive). The GI50 (HOP-92) was > 65800 nM (inactive), the GI50 (HT-29) was > 100000 nM (inactive) and the GI50 (IGROV-1) was > 100000 nM (inactive). For the same compound, the GI50 (K562) was > 100000 nM (inactive), the GI50 (KM-20L2) was > 100000 nM (inactive) and the GI50 (KM12) was > 100000 nM (inactive). For the same compound, the GI50 (LOX IMVI) was > 100000 nM (inactive), the GI50 (LXFL 529) was > 100000 nM (inactive) and the GI50 (M14) was > 100000 nM (inactive). For the same compound, the GI50 (M19-MEL) was > 100000 nM (inactive), the GI50 (MOLT-4) was > 100000 nM (inactive) and the GI50 (Malme-3M) was > 100000 nM (inactive). The GI50 (NCI-H226) was > 100000 nM (inactive), the GI50 (NCI-H23) was > 100000 nM (inactive) and the GI50 (NCI-H460) was > 100000 nM (inactive). The GI50 (NCI-H522) was > 100000 nM (inactive), the GI50 (OVCAR-3) was > 100000 nM (inactive) and the GI50 (OVCAR-4) was > 100000 nM (inactive). For the same compound, the GI50 (OVCAR-5) was > 100000 nM (inactive), the GI50 (OVCAR-8) was > 100000 nM (inactive) and the GI50 (RPMI-8226) was > 100000 nM (inactive). For the same compound, the GI50 (RXF 393) was > 48800 nM (inactive), the GI50 (RXF 631) was > 100000 nM (inactive) and the GI50 (SF-268) was > 100000 nM (inactive). The GI50 (SF-295) was > 100000 nM (inactive), the GI50 (SF-539) was > 100000 nM (inactive) and the GI50 (SK-MEL-28) was > 100000 nM (inactive). The GI50 (SK-MEL-2) was > 100000 nM (inactive), the GI50 (SK-MEL-5) was > 100000 nM (inactive) and the GI50 (SK-OV-3) was > 100000 nM (inactive). The GI50 (SN12C) was > 100000 nM (inactive), the GI50 (SNB-19) was > 100000 nM (inactive) and the GI50 (SNB-75) was > 78300 nM (inactive). For the same compound, the GI50 (SR) was > 100000 nM (inactive), the GI50 (SW-620) was > 100000 nM (inactive) and the GI50 (TK-10) was > 100000 nM (inactive). The GI50 (U-251) was > 100000 nM (inactive), the GI50 (UACC-257) was > 100000 nM (inactive) and the GI50 (UACC-62) was > 100000 nM (inactive). The GI50 (UO-31) was > 100000 nM (inactive).
